Measurements from patent US6737383B1, “Herbicidal oxadiazolidines” (priority 1999, dated 2004).

Experiments:
velvetleaf = assay: Test B pre/postemergence velvetleaf; assay type: in vivo, Abutilon theophrasti
Summary of the method: (§1)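 Herbicidal effect was estimated by eye on a ten-point control scale after plants spent twelve to sixteen days in a greenhouse following soil or foliar treatment. Foliar sprays targeted plants at one to four leaves; all doses were formulated in a non-phytotoxic solvent with surfactant.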

duck salad = assay: Test B flood test duck salad; assay type: in vivo, Heteranthera limosa; conditions: for Plant response rating, Ducksalad (0 to 10 scale, 0 is no effect, 10 is complete control): Rate 62 g/ha; for Plant response rating, Ducksalad (0 to 10 scale, 0 is no effect, 10 is complete control) / Ducksalad plant response rating (0 to 10 scale, 0 is no effect, 10 is complete control): visual evaluation after twelve to sixteen days; for Ducksalad plant response rating (0 to 10 scale, 0 is no effect, 10 is complete control): Rate 125 g/ha, under heading Pre-emergence
Summary of the method: (§2)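 Read-out is a visual response score from 0 (no effect) to 10 (complete control), assigned by comparison with untreated controls. Treatment was applied at the 2-leaf stage, and plants stayed in the greenhouse for twelve to sixteen days before scoring.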

soybean = assay: Test B pre/postemergence soybean; assay type: in vivo, Glycine max
Summary of the method: as §1

smallflower flatsedge = assay: Test B flood test smallflower flatsedge; assay type: in vivo, Cyperus difformis; conditions: for Plant response rating, S. Flatsedge (0 to 10 scale, 0 is no effect, 10 is complete control): Rate 62 g/ha; for Plant response rating, S. Flatsedge (0 to 10 scale, 0 is no effect, 10 is complete control) / S. Flatsedge plant response rating (0 to 10 scale, 0 is no effect, 10 is complete control): visual evaluation after twelve to sixteen days; for S. Flatsedge plant response rating (0 to 10 scale, 0 is no effect, 10 is complete control): Rate 125 g/ha, under heading Pre-emergence
Summary of the method: as §2

[1] = Postemergence, Rate 62 g/ha, scale 0 to 10, 0 is no effect, 10 is complete control
[2] = Postemergence, Rate 125 g/ha, scale of 0 to 10 where 0 is no effect and 10 is complete control
[3] = Postemergence, Rate 250 g/ha, scale of 0 to 10, 0 is no effect, 10 is complete control
[4] = Postemergence, Rate 500 g/ha, scale of 0 to 10 where 0 is no effect and 10 is complete control
[5] = Preemergence, Rate 62 g/ha, scale 0 to 10 (0 no effect, 10 complete control)
[6] = Preemergence, Rate 125 g/ha, scale of 0 to 10 where 0 is no effect and 10 is complete control
[7] = Preemergence, Rate 250 g/ha, scale 0 to 10 (0 no effect, 10 complete control)
[8] = Preemergence, Rate 500 g/ha, scale of 0 to 10 where 0 is no effect and 10 is complete control
[9] = flood test species, Pre-emergence
[10] = Rate 250 g/ha, Pre-emergence (flood test species), scale 0 to 10, 0 is no effect, 10 is complete control
[11] = Rate 500 g/ha, Pre-emergence section of Table B, 0 to 10 scale (0 no effect, 10 complete control)
[12] = Postemergence, Rate 250 g/ha, scale 0 to 10, 0 is no effect, 10 is complete control
[13] = Preemergence, Rate 250 g/ha, scale 0 to 10, 0 is no effect, 10 is complete control
[14] = Preemergence, Rate 500 g/ha, scale 0 to 10, 0 is no effect, 10 is complete control
[15] = Rate 62 g/ha, Postemergence, scale of 0 to 10 where 0 is no effect and 10 is complete control
[16] = Rate 250 g/ha, Pre-emergence, flood-test species, scale 0 to 10, 0 is no effect, 10 is complete control
[17] = Rate 500 g/ha, Pre-emergence, flood test species, scale 0 to 10 (0 no effect, 10 complete control)

Compound | Plant response rating, Velvetleaf (velvetleaf; [1]) | Plant response rating, Velvetleaf (velvetleaf; [2]) | Velvetleaf plant response rating (velvetleaf; [3]) | Velvetleaf plant response rating (velvetleaf; [5]) | Velvetleaf plant response rating (velvetleaf; [6]) | Plant response rating, Velvetleaf (velvetleaf; [7]) | Plant response rating, Velvetleaf (velvetleaf; [8]) | Plant response rating, Ducksalad (0 to 10 scale, 0 is no effect, 10 is complete control) (duck salad; [9]) | Ducksalad plant response rating (0 to 10 scale, 0 is no effect, 10 is complete control) (duck salad; flood test species) | Ducksalad plant response rating (duck salad; [10]) | Ducksalad plant response rating (duck salad; [11]) | Plant response rating, Soybean (soybean; [1]) | Plant response rating, Soybean (soybean; [2]) | Soybean plant response rating (soybean; [3]) | Soybean plant response rating (soybean; [5]) | Soybean plant response rating (soybean; [6]) | Plant response rating, Soybean (soybean; [7]) | Plant response rating, Soybean (soybean; [8]) | Plant response rating, S. Flatsedge (0 to 10 scale, 0 is no effect, 10 is complete control) (smallflower flatsedge; [9]) | S. Flatsedge plant response rating (0 to 10 scale, 0 is no effect, 10 is complete control) (smallflower flatsedge; flood test species) | other results
CCOC(=O)CC(C(=O)OCC)n1c(=O)on(C(=O)N(c2ccc(F)cc2)C(C)C)c1=O (centres unmarked) [Compound 615] | 0 | 0 | 0 | 0 | 0 | 0 | 0 | 0 | 0 | 0 | 0 | 1 | 1 | 3 | 0 | 0 | 0 | 0 | 0 | 0 | Plant response rating, Velvetleaf (velvetleaf; [4]): 0; Plant response rating, Soybean (soybean; [4]): 3; S. Flatsedge plant response rating (smallflower flatsedge; [10]): 0; S. Flatsedge plant response rating (smallflower flatsedge; [11]): 0
CC(C)N(C(=O)n1oc(=O)n(CC2CCC2)c1=O)c1ccc(F)cc1 [Compound 403] |  |  |  |  |  |  |  | 0 | 0 |  |  |  |  |  |  |  |  |  | 0 | 0 | Plant response rating, Velvetleaf (velvetleaf; [12]): 0; Velvetleaf plant response rating (velvetleaf; [4]): 6; Plant response rating, Velvetleaf (velvetleaf; [5]): 0; Plant response rating, Velvetleaf (velvetleaf; [6]): 0; Velvetleaf plant response rating (velvetleaf; [13]): 3; Velvetleaf plant response rating (velvetleaf; [14]): 5; Velvetleaf plant response rating (velvetleaf; [15]): 0; Ducksalad plant response rating (duck salad; [16]): 0; Ducksalad plant response rating (duck salad; [17]): 0; Plant response rating, Soybean (soybean; [12]): 6; Soybean plant response rating (soybean; [4]): 8; Plant response rating, Soybean (soybean; [5]): 0; Plant response rating, Soybean (soybean; [6]): 0; Soybean plant response rating (soybean; [13]): 0; Soybean plant response rating (soybean; [14]): 2; Soybean plant response rating (soybean; [15]): 4; S. Flatsedge plant response rating (smallflower flatsedge; [16]): 0; S. Flatsedge plant response rating (smallflower flatsedge; [17]): 6
CCOC(Cn1c(=O)on(C(=O)N(c2ccc(F)cc2)C(C)C)c1=O)OCC [Compound 629] | 0 | 5 | 5 | 3 | 6 | 6 | 8 | 0 | 0 | 0 | 0 | 4 | 6 | 7 | 0 | 0 | 0 | 0 | 0 | 0 | S. Flatsedge plant response rating (smallflower flatsedge; [10]): 0; S. Flatsedge plant response rating (smallflower flatsedge; [11]): 0
